Data taken from paper PMC13055374, “Engineered antimicrobial-derived peptides to manipulate mixed microbial systems” (Microbiology Spectrum, 2026).
Marks after values point to notes of the source that are not given here.

Legend:
[1] = Specific activity of partially purified pediocin by agar-well diffusion method; assay type: cell-based; settings: after cell adsorption-desorption and dialysis
Source text: We then proceeded to clone the pediocin operon (pedABCD [43]) from P. acidilactici UL5 into the pSIP-P27 vector for heterologous expression in other lactic acid bacteria, viz., Lactiplantibacillus plantarum WCFS1, Lactococcus cremoris MG1363, and the well-established expression host, E. coli MG1655. The pediocin operon imparted anti-listerial activity to the L. plantarum culture supernatant but not to that of L. cremoris or E. coli (Fig. 1A). Based on the degree of bioactivity, we concluded that the level of recombinant biosynthetic pediocin PA-1 accumulated in L. plantarum culture was […] that observed for P. acidilactici UL5 and was therefore not pursued further. Thus, for subsequent studies, we isolated pediocin PA-1 from P. acidilactici UL5 directly using the cell adsorption-desorption approach (Fig. S2). […] We attempted to further purify the preparation using reverse-phase high performance liquid chromatography with minimal enhancement in purity but a significant loss in yield (Fig. S3). The peptide recovered after cell adsorption-desorption and dialysis was lyophilized for long-term storage to minimize any loss in activity. The peptide using this method was purified 189-fold with a specific activity of 9,434 AU·mg^−1 as measured by agar-well diffusion method (Fig. 1B; Fig. S2A through C). […]

L. coryniformis [2] = assay type: cell-based, Lactobacillus coryniformis; settings: 24 h
Method: (§1) To determine the potency of the purified pediocin PA-1, we generated kill curves against a range of target bacteria (Fig. 1C). The concentration range tested was 3 pM to 3 μM following 10-fold serial dilutions. […] This is in approximate agreement with the published potency of pediocin PA-1 ([46]). Though the molecular mass of pediocin PA-1 is expected to be 4.5 kDa, we observed the partially purified peptide to migrate with an apparent mass of ~12.5 kDa (Fig. 1B). However, subsequent analysis by LC-MS yielded peaks of multiple m/z with the predominant peak at the expected molecular size of 4.6 kDa (Fig. S4). The purified pediocin PA-1, separated on denaturing but non-reducing SDS-PAGE (since this bacteriocin contains two crucial disulfide bonds), was subjected to agar-overlay assay using L. seeligeri as the indicator organism (Fig. S5).
(§2) The antimicrobial spectrum of pediocin PA-1 was assayed using a kill curve. Cultures grown overnight were resuspended in fresh medium at an OD600 of 0.05. EC50 was determined by incubating cells with varying concentrations of pediocin in a 96-well plate, and growth was measured at 600 nm after 24 h.

L. seeligeri = assay type: cell-based, Listeria seeligeri; settings: 24 h
Method: as §1, §2
Figure S7. Growth inhibition of L. seeligeri by modified and unmodified pediocin PA-1.

L. coryniformis [3] = assay: Cell-binding assay by flow cytometry; design: species or system Lactobacillus coryniformis; settings: maximum mean fluorescence intensity, Hill fit
Method: (§3) The binding affinity and avidity of pediocin to various gram-positive and gram-negative bacteria were studied using flow cytometry. Late log-phase cells were washed in the sodium phosphate buffer (5 mM, pH 6.0) and resuspended at an OD600 of 10^–3 in sodium-acetate buffer (25 mM, pH 4.0), sodium phosphate buffer (5 mM, pH 6.0), or sodium phosphate buffer (5 mM, pH 7.4) containing 1% bovine serum albumin (BSA) and 100 mM NaCl. Cells were incubated with varying concentrations of the conjugated peptide at 4°C for 30 min. The unbound peptide was removed by centrifugation, and the pellet was resuspended in its respective binding buffer containing 1% BSA. Flow cytometry was performed on an Attune NxT flow cytometer (Life Technologies/ThermoFisher Scientific, Carlsbad, CA). Data (≥10^4 events were recorded) were recorded using a […] (488 nm) at a voltage of 360 V, and gating was performed on an SSC-A versus SSC-H plot to reduce false events.

Bacillus subtilis = assay: Cell-binding assay by flow cytometry; settings: maximum mean fluorescence intensity, Hill fit
Method: as §3

L. cremoris = assay: Cell-binding assay by flow cytometry; design: species or system Lactococcus cremoris; settings: organism printed as L. lactis; signal did not saturate; read-out: Apparent KD
Method: as §3

L. casei = assay: Cell-binding assay by flow cytometry; design: species or system Lacticaseibacillus casei; settings: signal did not saturate
Method: as §3

E. coli = assay: Cell-binding assay by flow cytometry; design: species or system Escherichia coli; settings: negative control species; signal did not saturate; read-out: Apparent KD
Method: as §3

[4] = assay type: physicochemical
Source text: We then proceeded to clone the pediocin operon (pedABCD [43]) from P. acidilactici UL5 into the pSIP-P27 vector for heterologous expression in other lactic acid bacteria, viz., Lactiplantibacillus plantarum WCFS1, Lactococcus cremoris MG1363, and the well-established expression host, E. coli MG1655. The pediocin operon imparted anti-listerial activity to the L. plantarum culture supernatant but not to that of L. cremoris or E. coli (Fig. 1A). Based on the degree of bioactivity, we concluded that the level of recombinant biosynthetic pediocin PA-1 accumulated in L. plantarum culture was similar to that observed for P. acidilactici UL5 and was therefore not pursued further. Thus, for subsequent studies, we isolated pediocin PA-1 from P. acidilactici UL5 directly using the cell adsorption-desorption approach (Fig. S2). […] We attempted to further purify the preparation using reverse-phase high performance liquid chromatography with minimal enhancement in purity but a significant loss in yield (Fig. S3). The peptide recovered after cell adsorption-desorption and dialysis was lyophilized for long-term storage to minimize any loss in activity. The peptide using this method was purified 189-fold with a specific activity of 9,434 AU·mg^−1 as measured by agar-well diffusion method (Fig. 1B; Fig. S2A through C).

Which results are given for `CC[C@H](C)[C@@H]1NC(=O)[C@@H](NC(=O)[C@@H](NC(=O)[C@@H](NC(=O)[C@H](C)NC(=O)[C@H](CCCCN)NC(=O)CNC(=O)[C@H](Cc2c[nH]c3ccccc23)NC(=O)[C@H](CC(=O)O)NC(=O)[C@@H](NC(=O)[C@H](CO)NC(=O)[C@@H]2CSSC[C@H](NC(=O)[C@@H](NC(=O)[C@@H](NC(=O)CNC(=O)[C@H](CC(N)=O)NC(=O)CNC(=O)[C@H](Cc3ccc(O)cc3)NC(=O)[C@H](Cc3ccc(O)cc3)NC(=O)[C@@H](N)CCCCN)C(C)C)[C@@H](C)O)C(=O)NCC(=O)N[C@@H](CCCCN)C(=O)N[C@@H](Cc3c[nH]cn3)C(=O)N[C@@H](CO)C(=O)N2)C(C)C)[C@@H](C)O)[C@@H](C)O)CSSC[C@@H](C(=O)O)NC(=O)[C@H](CCCCN)NC(=O)[C@H](Cc2c[nH]cn2)NC(=O)[C@H](CC(N)=O)NC(=O)CNC(=O)[C@H](CCC(N)=O)NC(=O)[C@H](Cc2c[nH]cn2)NC(=O)CNC(=O)CNC(=O)[C@H]([C@@H](C)O)NC(=O)[C@H](C)NC(=O)[C@H](Cc2c[nH]c3ccccc23)NC(=O)[C@H](C)NC(=O)[C@H](CCSC)NC(=O)[C@H](C)NC(=O)CNC(=O)[C@H](CC(N)=O)NC(=O)[C@H](CC(N)=O)NC(=O)[C@H]([C@@H](C)CC)NC1=O` [pediocin PA-1]?
specific activity [1]: 9,434 AU·mg^−1; EC50 (L. coryniformis [2]): ~0.001 µM; EC50 (L. seeligeri): ~0.0133 µM; MFImax (L. coryniformis [3]): 6.3 ± 0.3 ×10^3; MFImax (Bacillus subtilis): 7 ± 1 ×10^3; Kd (L. cremoris): > 2 µM; MFImax (L. casei): >2* ×10^3; Kd (L. casei; read-out: Apparent KD): > 2 µM; Kd (E. coli): > 2 µM; stability of peptide recovered at acidic pH compared with basic pH [4]: more stable
